This is an account of results in patent US20090209485A1, “MODULATING ANGIOGENESIS WITH NOD FACTORS SUCH AS GLUCOSAMINE OLIGOSACCHARIDES” (priority 2005, published 2009).

What all share (format): cell-based
The subject of experiment [1] is rat aorta. Description: Rat aorta angiogenesis assay (vessel outgrowth from aorta fragments in fibrin gel). The procedure: Thoracic aortas were excised from three to nine month-old female Fischer rats, rinsed in Hanks balanced salt solution containing 2.5 μg/ml amphotericin B (Sigma, St Louis, Mo.), cleaned of periadventitial fibroadipose tissue and cross-sectioned at 1 mm intervals. The fragments were freed of residual clots. Dissecting and sectioning of the vessels was performed with the aid of a dissecting microscope.
Assays were performed in 48-well culture plates (Costar, Cambridge, Mass.). Five hundred microlitres of 3 mg/ml fibrinogen (bovine plasma, Calbiochem, La Jolla, Calif.) in serum free-Medium 199 (GibcoBRL) was added to each well with 5 μg/ml of aprotinin (Sigma) to prevent fibrinolysis by the vessel fragments. One vessel fragment was placed in the centre of the well and 15 μl of thrombin (50 NIH U/ml in 0.15M NaCl: bovine plasma: Sigma St Louis, Mo.) was added to the well and mixed rapidly with the fibrinogen. Fibrin gel formation usually occurred within 30 seconds and ideally the vessel fragment remained suspended in the centre of the gel. After gel formation, 0.5 ml/well of Medium M199 supplemented with 20% fetal calf serum (FCS) (Sigma), 0.1% 6-aminocaproic acid, 1% L-glutamine, 1%-amphotericin B and 0.6% gentamycin was added. The substances tested for angiogenesis modulating activity (compounds PI-88, 1, 2, 3, 4, 5, 6 and 7) were dissolved in 50% acetonitrile in ultrapure water and diluted at least 1:100 in the supplemented medium M199. Immediately after embedding of vessel fragment in the fibrin gels, 0.5 ml of medium containing the test substance was added to each well and each treatment was performed in six wells. Control cultures received medium without the test substance. Vessels were cultured at 37° C. in 5% CO2 in air for five days and the medium was changed on day four. Vessel growth was quantified manually under 40× magnification on day five, with growth being estimated as the percentage of the field (×40) around the vessel fragment that was occupied by vessel outgrowths.

Experiment [2] has as its system HUVEC (human umbilical vein endothelial cells). The experiment can be described thus: HUVEC assay: tube formation on matrigel. Conditions: 100 μg/ml, overnight incubation; for Inhibition of HUVEC cell “tiling” and/or change in tube morphology+/−: Matrigel + HUVEC. On the procedure:
HUVEC (human umbilical vein endothelial cells) form tubes on a matrigel support. The tubes form a “paving tile” formation after overnight incubation. Nod factor and derivative thereof were added at 100 μg/ml to determine if they inhibited tube formation and/or caused a change in tube morphology.

The subject of experiment [3] is rat aorta. The experiment can be described thus: Rat aorta angiogenesis assay (vessel outgrowth from aorta fragments in fibrin gel). As to conditions: Table 4, day 6, concentration not given.
For a further experiment, the system named is Mouse Aorta. The experiment can be described thus: Mouse aorta angiogenesis assay (vessel outgrowth from aorta fragments in fibrin gel). Conditions: Table 5. The procedure: Thoracic aortas were excised from 6-8 week old female C57 BL/6 mice, rinsed in Hanks balanced salt solution containing 2.5 μg/ml amphotericin B (Sigma, St Louis, Mo.) cleaned of periadventitial fibroadipose tissue and cross-sectioned at 1 mm intervals. The fragments were freed of residual clots. Dissecting and sectioning of the vessels was performed with the aid of a dissecting microscope. Assays were performed in 48-well culture plates (Costar, Cambridge, Mass.). Five hundred microlitres of 3 mg/ml fibrinogen (bovine plasma, Calbiochem, La Jolla, Calif.) in serum free-Medium 199 (GibcoBRL)) was added to each well with 5 ug/ml of aprotinin (Sigma) to prevent fibrinolysis by the vessel fragments. One vessel fragment was placed in the centre of the well and 15 ul of thrombin (50 NIH U/ml in 0.15M NaCl: EC 3.4.21.5 bovine plasma: Sigma St Louis, Mo.) was added to the well and mixed rapidly with the fibrinogen. Fibrin gel formation usually occurred within 30 seconds and ideally the vessel fragment remained suspended in the centre of the gel. […] Vessel growth was quantified manually under 40× magnification on day 7, with growth being estimated as the percentage of the field (×40) around the vessel fragment that was occupied by vessel outgrowths (see Table 5). • ^§Brown, K. J., Maynes, S. F., Bezos, A., Maguire, D. J., Ford, M. D., & Parish, C. […]

The mark [4] stands for this setting: Table 1, 10 μg/mL, % of field occupied by vessel outgrowths, control 82 ± 3.2.
Setting [5] is: Table 1, 10 μg/mL, '+' = growth above control.
The mark [6] stands for this setting: Table 1, 100 μg/mL, % of field around vessel fragment occupied by vessel outgrowths, control 82 ± 3.2.
Setting [7] is: Table 1, 100 μg/mL, '+' = growth above control.
The mark [8] stands for this setting: Table 3, Assay 1, testing at 100 μg/mL.
Setting [9] is: Table 3, Assay 2, testing at 100 μg/mL, '+' = growth above control.
The mark [10] stands for this setting: Table 3, Assay 3, testing at 100 μg/mL, '+' = growth above control.
Setting [11] is: Table 3, Assay 4, testing at 10 μg/mL.
[12] abbreviates: Table 3, Assay 5, testing at 10 μg/mL.
Setting [13] is: Table 4, Assay 1, day 5, control growth 27%, concentration not given.
Setting [14] is: Table 4, Assay 2, day 5, control growth 48%, concentration not given.

On to `CC(=O)N[C@H]1[C@H](O[C@H]2[C@H](O)[C@@H](NC(C)=O)[C@H](O[C@H]3[C@H](O)[C@@H](NC(C)=O)[C@H](O[C@H]4[C@H](O)[C@@H](NC(C)=O)C(O)O[C@@H]4CO)O[C@@H]3CO)O[C@@H]2CO)O[C@H](CO)[C@@H](O[C@@H]2O[C@H](CO)[C@@H](O)[C@H](O)[C@H]2N)[C@@H]1O` (some centres unmarked) [Compound 1], for which the figures for the “% Growth” value in the experiment on rat aorta [1] (setting [4]) and with rat aorta [1] (setting [6]) were 80 ± 8.4% and 53 ± 8.0%, respectively. Besides, the “% Inhibit.” value in the experiment with rat aorta [1] (setting [5]) was found to be 2.4%; in the experiment with rat aorta [1] (setting [7]), 35%. Also, the “Inhibition of HUVEC cell “tiling” and/or change in tube morphology+/−” value in experiment [2] is listed as “Yes”.
The matching figures for `CC(=O)N[C@H]1[C@H](O[C@H]2[C@H](O)[C@@H](NC(C)=O)[C@H](O[C@H]3[C@H](O)[C@@H](NC(C)=O)[C@H](O[C@H]4[C@H](O)[C@@H](NC(C)=O)C(O)O[C@@H]4CO[C@@H]4O[C@@H](C)[C@@H](O)[C@@H](O)[C@@H]4O)O[C@@H]3CO)O[C@@H]2CO)O[C@H](CO)[C@@H](O[C@@H]2O[C@H](CO)[C@@H](O)[C@H](O)[C@H]2N)[C@@H]1O` (some centres unmarked) [Compound 6]: 73 ± 7.5%, 53 ± 4.8%, 11%, 35% and “Yes”.
As for `CO[C@@H]1[C@H](OC[C@H]2OC(O)[C@H](NC(C)=O)[C@@H](O)[C@@H]2O[C@@H]2O[C@H](CO)[C@@H](O[C@@H]3O[C@H](CO)[C@@H](O[C@@H]4O[C@H](CO)[C@@H](O[C@@H]5O[C@H](CO)[C@@H](O)[C@H](O)[C@H]5N)[C@H](O)[C@H]4NC(C)=O)[C@H](O)[C@H]3NC(C)=O)[C@H](O)[C@H]2NC(C)=O)O[C@@H](C)[C@@H](O)[C@H]1O` (some centres unmarked) [Compound 7], the “% Growth” value was 94 ± 4.0% in the experiment on rat aorta [1] (setting [4]) and 90 ± 6.3% with rat aorta [1] (setting [6]). Further, the “Inhibition of HUVEC cell “tiling” and/or change in tube morphology+/−” value in experiment [2] is reported as “Yes”.
As for `CC(=O)N[C@H]1[C@H](O[C@H]2[C@H](O)[C@@H](NC(C)=O)[C@H](O[C@H]3[C@H](O)[C@@H](NC(C)=O)C(O)O[C@@H]3COS(=O)(=O)O)O[C@@H]2CO)O[C@H](CO)[C@@H](O[C@@H]2O[C@H](CO)[C@@H](O)[C@H](O)[C@H]2N)[C@@H]1O` (some centres unmarked) [Compound 21], the % Inhibition (in general, the relative decrease from the control value, in per cent) with rat aorta [1] (setting [8]) was determined as 74%; in the experiment with rat aorta [1] (setting [9]), 41%; with rat aorta [1] (setting [10]), 40%; in the experiment with rat aorta [1] (setting [11]), 24%; in the experiment on rat aorta [1] (setting [12]), 33%.
Regarding `CC(=O)N[C@H]1C(O)O[C@H](CO)[C@@H](O[C@@H]2O[C@H](CO)[C@@H](O)[C@H](O)[C@H]2N)[C@@H]1O` (some centres unmarked) [Compound 22], the “% Inhibition” value is 5% in the experiment on rat aorta [1] (setting [8]); 24% in the experiment on rat aorta [1] (setting [11]); 16% with rat aorta [1] (setting [12]); 33% in the experiment with rat aorta [1] (setting [13]); 6% in the experiment with rat aorta [1] (setting [14]); 0% in the experiment with rat aorta [3] (Assay 2, control growth 63%).
On to `CC(=O)N[C@H]1[C@H](O[C@H]2[C@H](O)[C@@H](NC(C)=O)[C@H](O[C@H]3[C@H](O)[C@@H](NC(C)=O)C(O)O[C@@H]3CO)O[C@@H]2CO)O[C@H](CO)[C@@H](O[C@@H]2O[C@H](CO)[C@@H](O)[C@H](O)[C@H]2N)[C@@H]1O` (some centres unmarked) [Compound 23], for which the “% Inhibition” value in the experiment on rat aorta [1] (setting [9]) is listed as 66%; in the experiment on rat aorta [1] (setting [10]), 29%; with rat aorta [1] (setting [11]), 14%; in the experiment on rat aorta [1] (setting [12]), 24%.
As for `CC(=O)N[C@H]1[C@H](O[C@H]2[C@H](O)[C@@H](NC(C)=O)[C@H](O[C@H]3[C@H](O)[C@@H](NC(C)=O)C(O)O[C@@H]3CO[C@@H]3O[C@@H](C)[C@@H](O)[C@@H](O)[C@@H]3O)O[C@@H]2CO)O[C@H](CO)[C@@H](O[C@@H]2O[C@H](CO)[C@@H](O[C@@H]3O[C@H](CO)[C@@H](O)[C@H](O)[C@H]3NC(=O)Cc3ccccc3)[C@H](O)[C@H]2NC(C)=O)[C@@H]1O` (some centres unmarked) [Compound 24], the “% Inhibition” value worked out at 3% in the experiment with rat aorta [1] (setting [11]); 1% with rat aorta [1] (setting [12]); 6% in the experiment with rat aorta [1] (setting [14]); 8% in the experiment with rat aorta [3] (Assay 2, control growth 63%).
In the case of `CCCCCCC=CCCCOc1cccc(C(=O)N[C@H]2[C@H](O[C@H]3[C@H](O)[C@@H](NC(C)=O)[C@H](O[C@H]4[C@H](O)[C@@H](NC(C)=O)[C@H](O[C@H]5[C@H](O)[C@@H](NC(C)=O)[C@H](O[C@H]6[C@H](O)[C@@H](NC(C)=O)C(O)O[C@@H]6CO[C@@H]6O[C@@H](C)[C@@H](O)[C@@H](O)[C@@H]6O)O[C@@H]5CO)O[C@@H]4CO)O[C@@H]3CO)O[C@H](CO)[C@@H](O)[C@@H]2O)c1` (some centres unmarked) [Compound 25], the “% Inhibition” value was determined as 76% in the experiment with rat aorta [1] (setting [9]); 73% in the experiment with rat aorta [1] (setting [10]); 24% in the experiment with rat aorta [1] (setting [11]); 21% in the experiment with rat aorta [1] (setting [12]); 8% in the experiment on rat aorta [1] (Table 3, Assay 6, testing at 1.0 μg/mL); 3% with rat aorta [1] (Table 3, Assay 7, testing at 1.0 μg/mL).
Turning to `CC(=O)N[C@H]1[C@H](O[C@H]2[C@H](O)[C@@H](NC(C)=O)[C@H](O[C@H]3[C@H](O)[C@@H](NC(C)=O)[C@H](O[C@H]4[C@H](O)[C@@H](NC(C)=O)C(O)O[C@@H]4CO[C@@H]4O[C@@H](C)[C@@H](O)[C@@H](O)[C@@H]4O)O[C@@H]3CO)O[C@@H]2CO)O[C@H](CO)[C@@H](O[C@@H]2O[C@H](CO)[C@@H](O)[C@H](O)[C@H]2N=[N+]=[N-])[C@@H]1O` (some centres unmarked) [Compound 26], the “% Inhibition” value was determined as 3% in the experiment on rat aorta [1] (setting [9]) and 15% in the experiment on rat aorta [1] (setting [10]).
Take PI-88 [reference compound]: the “% Growth” value in the experiment with rat aorta [1] (setting [6]) was found to be 25 ± 5.4%; in the experiment with rat aorta [1] (Table 2, 100 μg/mL, control 74 ± 3.8) it was 39 ± 6.1%. The “% Inhibit.” value in the experiment with rat aorta [1] (setting [7]) is listed as 69%; in the experiment with rat aorta [1] (Table 2, 100 μg/mL), 47%. Besides, the “% Inhibition” value was determined as 82% in the experiment on rat aorta [1] (setting [8]); 77% with rat aorta [1] (setting [9]); 68% in the experiment with rat aorta [1] (setting [10]); 18% with rat aorta [1] (setting [11]); 14% in the experiment with rat aorta [1] (setting [12]); 91% in the experiment on rat aorta [1] (setting [13]). Moreover, the “% Inhibition” value in the experiment with rat aorta [1] (Table 4, Assay 1, day 7, control growth 68%, concentration not given) is 77%; in the experiment on rat aorta [1] (setting [14]), 66%; in the experiment on rat aorta [1] (Table 4, Assay 2, day 7, control growth 83%, concentration not given), 68%; with rat aorta [3] (Assay 1, control growth 43%), 80%; in the experiment on rat aorta [3] (Assay 2, control growth 63%), 70%; in the experiment with Mouse Aorta (10 μg/ml), 30%. Moreover, the “% Inhibition” value in the experiment on Mouse Aorta (100 μg/ml) came to 93%. The “Inhibition of HUVEC cell “tiling” and/or change in tube morphology+/−” value in experiment [2] is reported as “Yes”. Further, the “effect on HUVEC tube formation” value in experiment [2] (matrigel) is reported as “affected tube formation”.
